Results reported in patent US11149046B2, “Antibacterial sideromycins” (Hsiri Therapeutics, Inc., priority 2014, dated 2021).
In brackets after ≈: the same amount, converted by molar mass. Entries after “also recorded” stand apart in the source; their conditions may differ. Like-named read-outs stand apart in the source and are kept apart here.

Key:
A. baumannii BAA1793 = test: Antibacterial activity of MG-1-189 and sulbactam; details: single agent
[1] = test system: Pseudomonas aeruginosa 01 (Pa01); test: MIC determination; format: cell-based; details: read-out: MIC
Outline: (§1)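 Conjugates tested for antibacterial activity. Lowest concentration inhibiting growth recorded in μM. Plate-based Kirby-Bauer diffusion scored by inhibition zone, mm.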

A. baumannii ATCC 17961 = test: MIC determination; format: cell-based, Acinetobacter baumannii; details: read-out: MIC
Outline: as §1

P. aeruginosa KW799/wt = test: MIC determination; format: cell-based, Pseudomonas aeruginosa; details: read-out: MIC
Outline: as §1

Pa4 = test: MIC determination; format: cell-based, Pseudomonas aeruginosa; details: Table 5
Outline: as §1

[2] = test system: Pa-Da-1304 CF patient isolate; test: MIC determination; format: cell-based, Pseudomonas aeruginosa
Description: (§2) MIC (minimum inhibition concentration) is given in μM and AD (agar diffusion zones of inhibition are given in mm from Kirby-Bauer Petri dish growth inhibition studies).
We obtained a clinical isolate of Pseudomonas from a cystic fibrosis patient.

[3] = test system: Pseudomonas aeruginosa KW799/61; format: cell-based; details: outer membrane permeable mutant; FIG. 9 center panel
Description: as §2

Pa6 = test: MIC determination; format: cell-based, Pseudomonas aeruginosa; details: Table 5; read-out: MIC
Description: as §2

[4] = test system: Pseudomonas aeruginosa KW799/wt; test: Agar diffusion (Kirby-Bauer) assay; format: cell-based; details: wild type Pseudomonas; FIG. 8, 9, 12
Description: (§3) Table 3 that was included in the first Example 4 section provides antibacterial data for the first synthetic sideromycins we prepared and studied. The second Example 4 section elaborated and expanded on that data with inclusion of representative antibacterial data in the text and associated pictures of Petri dish assays. MIC (minimum inhibition concentration) is given in μM and AD (agar diffusion zones of inhibition are given in mm from Kirby-Bauer Petri dish growth inhibition studies).

A. baumannii BAA1800 = test: Antibacterial activity of MG-1-189 and sulbactam; details: single agent
A. baumannii BAA1710 = test: Antibacterial activity of MG-1-189 and sulbactam; details: single agent
[5] = test system: Acinetobacter baumannii ATCC 17961; test: Agar diffusion (Kirby-Bauer) assay, with and without hydrogel; format: cell-based; details: Acinetobacter; FIG. 8, 9, 10
Description: as §3
We investigated whether the sideromycin absorbed in the gel be able to diffuse out of the gel and into the agar to effect antibacterial growth. As a control, the sideromycin alone, without gel, was added in a separate 9 mm well, as usual.
The second question was whether the sideromycin continue to be released and be able to effect bacterial growth inhibition over extended periods. Thus, additional identical agar plates were prepared and stored at 4° C. for 24, 48 and 72 hours to allow diffusion of the sideromycin (control and gel forms) into the agar before allowing the bacteria to grow in an incubator. Then after each time period, the Petri dishes were incubated at 37° C. for 20 hours to promote bacteria growth in the agar. […] The study has been extended to as long as 168 hours (one week) with retention of antibiotic effectiveness.

[6] = test system: P. aeruginosa KW799/61 (permeability mutant); test: microbe, parasite or virus in culture; format: cell-based, Pseudomonas aeruginosa; details: Table 5
Description: as §2

A. baumannii BAA1797 = test: Antibacterial activity of MG-1-189 and sulbactam; details: single agent
Acinetobacter = test: Murine Survival Experiment with Acinetobacter; format: in vivo; details: 50 mg/kg IV at +30 min and +4 hr
Procedure: In vivo data for murine survival with Acinetobacter is shown in Table 9 below and graphically in FIG. 14. In the experiments, 10^8 Acinetobacter was administered IP at time 0 on Day 1, and antibiotic was administered twice IV at +30 min and +4 hr

N[C@@H](C(=O)N[C@@H]1C(=O)N2C(C(=O)O)=C(Cl)CC[C@H]12)c1ccccc1 [loracarbef, reference compound]
Antibacterial activity (MIC) (A. baumannii BAA1793): >25 µM
MIC ([1]; Table 5): >200 µM
MIC ([1]; Table 7): >200 µM
MIC (A. baumannii ATCC 17961; Table 5, head prints A. baumannii only): >200 µM
MIC (A. baumannii ATCC 17961; Table 7): >200 µM
MIC (P. aeruginosa KW799/wt; Table 5): >200 µM
MIC (P. aeruginosa KW799/wt; Table 7): >200 µM
MIC (Pa4): >200 µM
MIC ([2]; Table 5): >200 µM
susceptibility of the clinical isolate (in words) ([2]; preliminary tests): resistant
zones of inhibition (in words) [3]: very small zone of inhibition
MIC (Pa6): >200 µM
zones of inhibition (in words) [4]: inactive
Antibacterial activity (MIC) (A. baumannii BAA1800): >25 µM
Antibacterial activity (MIC) (A. baumannii BAA1710): >25 µM
zones of inhibition (in words) [5]: inactive; also recorded: no inhibition
MIC [6]: 50 µM (≈ 17.5 µg/mL)
Antibacterial activity (MIC) (A. baumannii BAA1797): >25 µM
murine survival (surviving mice) (Acinetobacter; D 1, 10^8 Acinetobacter IP): 6
murine survival (surviving mice) (Acinetobacter; D 2): 2
murine survival (surviving mice) (Acinetobacter; D 3): 2
murine survival (surviving mice) (Acinetobacter; D 4): 2
murine survival (surviving mice) (Acinetobacter; D 5): 2
murine survival (surviving mice) (Acinetobacter; D 6): 2
murine survival (surviving mice) (Acinetobacter; D 7): 2
